Calls of active or inactive are those of the source. No cut-off for these calls is given here.
What was measured:
[1] = Selectivity index, ratio of IC50 for African green monkey Vero cells to IC50 for amastigote stage of Trypanosoma cruzi IRHOD/CO/2008/SN3 infected in African green monkey Vero cells; type: toxicity, cell-based; details: read-out: Ratio IC50
[2] = Selectivity index, ratio of IC50 for African green monkey Vero cells to IC50 for epimastigote stage of Trypanosoma cruzi IRHOD/CO/2008/SN3; type: toxicity, cell-based; details: read-out: Ratio IC50
Vero = experiment: Cytotoxicity against African green monkey Vero cells assessed as cell viability after 72 hrs by propidium iodide/fluorescein diacetate staining-based flow cytometric analysis; details: Chlorocebus sabaeus
Trypanosoma cruzi [3] = experiment: Antitrypanosomal activity against amastigote stage of Trypanosoma cruzi IRHOD/CO/2008/SN3 infected in African green monkey Vero cells assessed as parasite growth inhibition after 72 hrs by Giemsa staining-based microscopic analysis; type: functional, organism-based; details: IRHOD/CO/2008/SN3, Vero
Trypanosoma cruzi [4] = experiment: Antitrypanosomal activity against epimastigote stage of Trypanosoma cruzi IRHOD/CO/2008/SN3 assessed as parasite growth inhibition after 72 hrs by Neubauer hemocytometric chamber analysis; type: functional, organism-based; details: IRHOD/CO/2008/SN3, 72 h
Mus musculus [5] = experiment: Toxicity in BALB/c albino mouse infected with blood trypomastigote stage of Trypanosoma cruzi assessed as change in alkaline phosphatase level in serum at 25 mg/kg, ip administered on day 7 to 12 post-infection measured after day 120 relative to control; type: organism-based; design: dose 25 mg/kg, route intraperitoneal; details: in vivo
Mus musculus [6] = experiment: Toxicity in BALB/c albino mouse infected with blood trypomastigote stage of Trypanosoma cruzi assessed as change in ALT/GPT level in serum at 25 mg/kg, ip administered on day 7 to 12 post-infection measured after day 120 relative to control; type: organism-based; design: dose 25 mg/kg, route intraperitoneal; details: in vivo
Mus musculus [7] = experiment: Toxicity in BALB/c albino mouse infected with blood trypomastigote stage of Trypanosoma cruzi assessed as increase in AST/GOT level in serum at 25 mg/kg, ip administered on day 7 to 12 post-infection measured after day 120 relative to control; type: organism-based; design: dose 25 mg/kg, route intraperitoneal; details: in vivo
Mus musculus [8] = experiment: Toxicity in BALB/c albino mouse infected with blood trypomastigote stage of Trypanosoma cruzi assessed as increase in total bilirubin level in serum at 25 mg/kg, ip administered on day 7 to 12 post-infection measured after day 120 relative to control; type: organism-based; design: dose 25 mg/kg, route intraperitoneal; details: in vivo
Mus musculus [9] = experiment: Toxicity in BALB/c albino mouse infected with blood trypomastigote stage of Trypanosoma cruzi assessed as increase in LDH level in serum at 25 mg/kg, ip administered on day 7 to 12 post-infection measured after day 120 relative to control; type: organism-based; design: dose 25 mg/kg, route intraperitoneal; details: in vivo
Mus musculus [10] = experiment: Toxicity in BALB/c albino mouse infected with blood trypomastigote stage of Trypanosoma cruzi assessed as change in creatinephophokinase-MB level in serum at 25 mg/kg, ip administered on day 7 to 12 post-infection measured after day 120 relative to control; type: organism-based; design: dose 25 mg/kg, route intraperitoneal; details: in vivo
Mus musculus [11] = experiment: Toxicity in BALB/c albino mouse infected with blood trypomastigote stage of Trypanosoma cruzi assessed as increase in uric acid level in serum at 25 mg/kg, ip administered on day 7 to 12 post-infection measured after day 120 relative to control; type: organism-based; design: dose 25 mg/kg, route intraperitoneal; details: in vivo
Mus musculus [12] = experiment: Toxicity in BALB/c albino mouse infected with blood trypomastigote stage of Trypanosoma cruzi assessed as change in urea level in serum at 25 mg/kg, ip administered on day 7 to 12 post-infection measured after day 120 relative to control; type: organism-based; design: dose 25 mg/kg, route intraperitoneal; details: in vivo
Trypanosoma cruzi [13] = experiment: Trypanocidal activity against metacyclic trypomastigote stage of Trypanosoma cruzi infected in BALB/c albino mouse acute chagas disease model assessed as inhibition of parasitemia at 25 mg/kg, ip administered on day 7 to 12 post-infection measured every 2 days until day 40 […] relative to control; type: functional; details: route intraperitoneal
Trypanosoma cruzi [14] = experiment: Trypanocidal activity against metacyclic trypomastigote stage of Trypanosoma cruzi infected in BALB/c albino mouse acute chagas disease model assessed as reduction of parasite burden at 25 mg/kg, ip administered on day 7 to 12 post-infection measured on day 14 by ELISA; type: functional, organism-based; design: dose 25 mg/kg
Mus musculus [15] = experiment: Toxicity in BALB/c albino mouse assessed as mortality at 25 mg/kg, ip administered for 5 days; type: organism-based; design: dose 25 mg/kg, route intraperitoneal; details: in vivo, 120 h
Trypanosoma cruzi [16] = experiment: (§1) Antitrypanosomal activity against trypomastigote stage of Trypanosoma cruzi IRHOD/CO/2008/SN3 assessed as reduction of trypomastigote number per mililiter of culture medium at IC25 preincubated for 12 hrs followed by compound washout measured every 48 hrs for 10 days by Neubauer hemocytometric chamber analysis relative to control; type: functional
Trypanosoma cruzi [17] = experiment: as §1, with “amastigote” for “trypomastigote”, “IRHOD/CO/2008/SN3 infected in African green monkey Vero cells” for “IRHOD/CO/2008/SN3”, “cell” for “mililiter of culture medium”; type: functional
Trypanosoma cruzi [18] = experiment: Antitrypanosomal activity against amastigote stage of Trypanosoma cruzi IRHOD/CO/2008/SN3 infected in African green monkey Vero cells assessed as decrease in infection rate at IC25 preincubated for 12 hrs followed by compound washout measured every 48 hrs for 10 days by Neubauer hemocytometric chamber analysis relative to control; type: functional
Trypanosoma cruzi [19] = experiment: Antitrypanosomal activity against epimastigote stage of Trypanosoma cruzi IRHOD/CO/2008/SN3 assessed as formation of electron-dense vacuoles at IC25 after 72 hrs by TEM analysis; type: functional, organism-based
Trypanosoma cruzi [20] = experiment: Antitrypanosomal activity against epimastigote stage of Trypanosoma cruzi IRHOD/CO/2008/SN3 assessed as disappearance of microtubular structure at IC25 after 72 hrs by TEM analysis; type: functional, organism-based
Trypanosoma cruzi [21] = experiment: Antitrypanosomal activity against epimastigote stage of Trypanosoma cruzi IRHOD/CO/2008/SN3 assessed as partially scalloped parasite outer membrane at IC25 after 72 hrs by TEM analysis; type: functional, organism-based
Trypanosoma cruzi [22] = experiment: Antitrypanosomal activity against epimastigote stage of Trypanosoma cruzi IRHOD/CO/2008/SN3 assessed as discontinuation of parasite outer membrane at IC25 after 72 hrs by TEM analysis; type: functional, organism-based
Trypanosoma cruzi [23] = experiment: Antitrypanosomal activity against epimastigote stage of Trypanosoma cruzi IRHOD/CO/2008/SN3 assessed as mitochondrial swelling with rupture of membrane at IC25 after 72 hrs by TEM analysis; type: functional, organism-based
Trypanosoma cruzi [24] = experiment: Antitrypanosomal activity against epimastigote stage of Trypanosoma cruzi IRHOD/CO/2008/SN3 assessed as change in excreted succinate level at IC25 after 96 hrs by 1H NMR analysis relative to control; type: functional
Trypanosoma cruzi [25] = experiment: Antitrypanosomal activity against epimastigote stage of Trypanosoma cruzi IRHOD/CO/2008/SN3 assessed as change in excreted pyruvate level at IC25 after 96 hrs by 1H NMR analysis relative to control; type: functional
Trypanosoma cruzi [26] = experiment: Antitrypanosomal activity against epimastigote stage of Trypanosoma cruzi IRHOD/CO/2008/SN3 assessed as change in excreted acetate level at IC25 after 96 hrs by 1H NMR analysis relative to control; type: functional
Trypanosoma cruzi [27] = experiment: Antitrypanosomal activity against epimastigote stage of Trypanosoma cruzi IRHOD/CO/2008/SN3 assessed as change in excreted alanine level at IC25 after 96 hrs by 1H NMR analysis relative to control; type: functional
Trypanosoma cruzi [28] = experiment: Antitrypanosomal activity against epimastigote stage of Trypanosoma cruzi IRHOD/CO/2008/SN3 assessed as change in excreted lactate level at IC25 after 96 hrs by 1H NMR analysis relative to control; type: functional

## CCCCCCCCCCCCCCCCNc1c(NCCN(C)C)c(=O)c1=O
[1]
  selectivity ratio: 3.4
[2]
  selectivity ratio: 1.8
Vero
  IC50: 90.1 µM
Trypanosoma cruzi [3]
  IC50: 22.4 µM
Trypanosoma cruzi [4]
  IC50: 49.8 µM

## CCCCNc1c(NCCCC(=O)O)c(=O)c1=O
[1]
  selectivity ratio: 0.3
[2]
  selectivity ratio: 1.2
Vero
  IC50: 21.6 µM
Trypanosoma cruzi [3]
  IC50: 66.9 µM
Trypanosoma cruzi [4]
  IC50: 17.3 µM

## CN1CCCNc2c(c(=O)c2=O)NCCCN(C)CCCNc2c(c(=O)c2=O)NCCC1
[1]
  selectivity ratio: 3.5
[2]
  selectivity ratio: 5.1
Vero
  IC50: 111 µM
Trypanosoma cruzi [3]
  IC50: 31.2 µM
Trypanosoma cruzi [4]
  IC50: 21.8 µM

## CCCCNc1c(NCCN(C)C)c(=O)c1=O
Mus musculus [5]
  Activity: < 10%
Mus musculus [6]
  Activity: < 10%
Mus musculus [7]
  Activity: 40%
Mus musculus [8]
  Activity: 40%
Mus musculus [9]
  Activity: 40%
Mus musculus [10]
  Activity: < 10%
Mus musculus [11]
  Activity: 30%
Mus musculus [12]
  Activity: < 10%
Trypanosoma cruzi [13]
  inhibition in vivo at 25 mg/kg: 31%
Trypanosoma cruzi [14]
  Activity: Active
Mus musculus [15]
  Activity: Non-toxic
Trypanosoma cruzi [16]
  inhibition (INH): 18%
Trypanosoma cruzi [17]
  inhibition (INH): 35%
Trypanosoma cruzi [18]
  inhibition (INH): 35%
[1]
  selectivity ratio: 28
[2]
  selectivity ratio: 24.8
Vero
  IC50: 260 µM
Trypanosoma cruzi [3]
  IC50: 9.3 µM
Trypanosoma cruzi [4]
  IC50: 10.5 µM
Trypanosoma cruzi [19]
  Activity: Active
Trypanosoma cruzi [20]
  Activity: Active
Trypanosoma cruzi [21]
  Activity: Active
Trypanosoma cruzi [22]
  Activity: Active
Trypanosoma cruzi [23]
  Activity: Active
Trypanosoma cruzi [24]
  Activity: -28.3%
Trypanosoma cruzi [25]
  Activity: -11.1%
Trypanosoma cruzi [26]
  Activity: -18.6%
Trypanosoma cruzi [27]
  Activity: -11.1%
Trypanosoma cruzi [28]
  Activity: -23.9%

## CN(C)CCCNc1c(NCCCNc2c(NCCCN(C)C)c(=O)c2=O)c(=O)c1=O
[1]
  selectivity ratio: 0.2
[2]
  selectivity ratio: 0.1
Vero
  IC50: 11.4 µM
Trypanosoma cruzi [3]
  IC50: 46 µM
Trypanosoma cruzi [4]
  IC50: 96.2 µM

## O=C(Cn1ccnc1[N+](=O)[O-])NCc1ccccc1 [BENZNIDAZOLE]
Trypanosoma cruzi [13]
  inhibition in vivo at 25 mg/kg: 26%
Trypanosoma cruzi [14]
  Activity: Active
Trypanosoma cruzi [16]
  inhibition (INH): 21%
Trypanosoma cruzi [17]
  inhibition (INH): 15%
Trypanosoma cruzi [18]
  inhibition (INH): 20%

## NCc1ccc(Nc2c(O)c(=O)c2=O)cc1
[1]
  selectivity ratio: 0.5
[2]
  selectivity ratio: 0.4
Vero
  IC50: 36.6 µM
Trypanosoma cruzi [3]
  IC50: 72.6 µM
Trypanosoma cruzi [4]
  IC50: 89.1 µM

## CN(C)c1ccc(Nc2c(O)c(=O)c2=O)cc1
[1]
  selectivity ratio: 1.3
[2]
  selectivity ratio: 0.8
Vero
  IC50: 12.9 µM
Trypanosoma cruzi [3]
  IC50: 10.1 µM
Trypanosoma cruzi [4]
  IC50: 15.9 µM

From ChEMBL document CHEMBL3124761, “Synthesis and biological evaluation of N,N'-squaramides with high in vivo efficacy and low toxicity: toward a low-cost drug against Chagas disease” (J Med Chem, 2014)
